This assay has as its target Human immunodeficiency virus type 1 protease (Human immunodeficiency virus 1, UniProt Q72874). Nature of the assay: ChEBML_157558. The text has this: Inhibition of HIV-1 protease.

SMILES strings stand for the structures.

`O=c1oc2c(c(O)c1C(c1cccc(CS(=O)(=O)c3ccccn3)c1)C1CC1)CCCCCC2` (configuration not stated) [3-{Cyclopropyl-[3-(pyridine-2-sulfonylmethyl)-phenyl]-methyl}-4-hydroxy-5,6,7,8,9,10-hexahydro-cycloocta[b]pyran-2-one] came in with a Ki of 1.9 nM.

Turning to `N#Cc1ccc(S(=O)(=O)Cc2cccc(C(c3c(O)c4c(oc3=O)CCCCCC4)C3CC3)c2)cc1` (configuration not stated) [4-{3-[Cyclopropyl-(4-hydroxy-2-oxo-5,6,7,8,9,10-hexahydro-2H-cycloocta[b]pyran-3-yl)-methyl]-phenylmethanesulfonyl}-benzonitrile], the inhibition constant (Ki) was found to be 1.9 nM.

Source of the values: BindingDB's records for doi:10.1016/S0960-894X(97)00031-0 (1997).
